Read-outs that look alike come from different tables or passages of the source.
Tests used:
[1] = target: T1, recombinant human FAPα (rhFAPα) (Homo sapiens, UniProt Q12884); assay: FAPα enzymatic exopeptidase (dipeptidase) activity assay, Z-Gly-Pro-AMC; assay type: biochemical
T1 construct: purchased R&S system (so in the source)
T1 sequence (Q12884 1-760): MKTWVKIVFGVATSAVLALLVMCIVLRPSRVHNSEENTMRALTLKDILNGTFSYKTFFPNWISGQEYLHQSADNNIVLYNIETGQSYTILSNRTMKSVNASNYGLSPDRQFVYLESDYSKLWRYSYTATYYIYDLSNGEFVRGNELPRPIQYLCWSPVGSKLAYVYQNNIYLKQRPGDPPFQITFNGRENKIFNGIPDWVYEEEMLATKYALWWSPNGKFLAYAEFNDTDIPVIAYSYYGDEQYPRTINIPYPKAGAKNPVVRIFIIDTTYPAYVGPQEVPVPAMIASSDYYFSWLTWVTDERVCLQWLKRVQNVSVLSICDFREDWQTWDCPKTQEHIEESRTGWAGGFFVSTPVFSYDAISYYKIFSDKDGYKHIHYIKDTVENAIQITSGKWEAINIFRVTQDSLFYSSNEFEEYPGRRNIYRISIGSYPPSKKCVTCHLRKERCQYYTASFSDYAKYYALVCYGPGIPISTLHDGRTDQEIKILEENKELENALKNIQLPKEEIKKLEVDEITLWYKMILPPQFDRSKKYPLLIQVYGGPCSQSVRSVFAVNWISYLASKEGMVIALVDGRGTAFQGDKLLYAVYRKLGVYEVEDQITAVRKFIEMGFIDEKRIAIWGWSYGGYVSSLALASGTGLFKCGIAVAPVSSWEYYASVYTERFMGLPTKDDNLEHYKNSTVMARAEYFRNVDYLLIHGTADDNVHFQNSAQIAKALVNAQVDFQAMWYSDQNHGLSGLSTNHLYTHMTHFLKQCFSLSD

circulating FAPα [2] = target: T2, circulating FAPα (Homo sapiens, UniProt Q12884); assay: Ex vivo inhibition of circulating FAPα activity from human plasma (PRXS-AMC); assay type: biochemical
T2 construct: from tissue; host or cells: human plasma (EDTA-K2) from healthy volunteers
T2 sequence (Q12884 24-760 limits assumed): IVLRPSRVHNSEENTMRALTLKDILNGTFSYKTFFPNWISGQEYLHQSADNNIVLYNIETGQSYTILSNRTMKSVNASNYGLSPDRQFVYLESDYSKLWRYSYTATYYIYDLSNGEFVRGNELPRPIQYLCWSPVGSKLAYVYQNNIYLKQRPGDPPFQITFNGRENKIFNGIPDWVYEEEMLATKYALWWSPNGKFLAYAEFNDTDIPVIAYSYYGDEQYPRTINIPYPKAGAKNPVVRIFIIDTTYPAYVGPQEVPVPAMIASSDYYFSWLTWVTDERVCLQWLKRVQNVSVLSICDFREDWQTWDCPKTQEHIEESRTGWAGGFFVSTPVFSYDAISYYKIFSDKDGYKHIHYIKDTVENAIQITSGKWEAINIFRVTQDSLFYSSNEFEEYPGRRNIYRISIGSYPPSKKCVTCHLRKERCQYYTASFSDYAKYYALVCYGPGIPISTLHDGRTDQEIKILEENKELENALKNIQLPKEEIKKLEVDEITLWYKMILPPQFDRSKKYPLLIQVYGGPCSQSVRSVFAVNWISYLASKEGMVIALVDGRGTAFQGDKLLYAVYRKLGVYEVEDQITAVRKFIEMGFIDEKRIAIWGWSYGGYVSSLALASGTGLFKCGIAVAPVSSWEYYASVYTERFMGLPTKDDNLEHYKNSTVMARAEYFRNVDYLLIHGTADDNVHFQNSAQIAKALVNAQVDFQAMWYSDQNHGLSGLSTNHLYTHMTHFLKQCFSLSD
Description: Human blood was obtained from healthy young volunteers. Blood samples were collected in tubes coated with EDTA-K2 by venipuncture method, mixed gently, then kept on ice and centrifuged at 2,500×g for 15 minutes at 4° C. After plasma separation, samples were stored at −80° C. in aliquots of 300 μL.
Exemplary compounds were allowed to interact with the enzyme for 15 minutes at 37° C. After pre-incubation, 50 μl of 200 μM PRXS-AMC substrate were added to the all mixtures. All reactions were carried out for 1 h at 37° C. protected from light. AMC release was detected measuring fluorescence at an excitation/emission wavelength of 380/460 nm using a Multifunction Microplate Reader. All measurements were carried out as single point.

circulating FAPα [3] = target: circulating FAPα (Mesocricetus auratus, UniProt A0ABM2XF29); assay: Ex vivo inhibition of circulating FAPα activity from hamster plasma (PRXS-AMC); assay type: biochemical, Golden Syrian hamster
Description: Male Golden Syrian hamsters were provided by National Laboratory Animal Center (NLAC) in Taiwan. The animals were maintained in a hygienic environment under controlled temperature (20-24° C.) and humidity (50%-80%) with 12 hours light/dark cycles. Free access to standard lab diet [MFG (Oriental Yeast Co., Ltd. Japan)] and autoclaved tap water were granted. All aspects of this work including housing, experimentation and disposal of animals were performed in general accordance with the “Guide for the Care and Use of Laboratory Animals: Eighth Edition” (National Academies Press, Washington, D.C., 2011). In addition, the animal care and use protocol was reviewed and approved by the IACUC at Pharmacology Discovery Services Taiwan, Ltd. Immediately after the sacrifice of hamsters, blood samples were collected via terminal cardiac puncture in tubes coated with EDTA-K2, mixed gently, then kept on ice and centrifuged at 2,500×g for 15 minutes at 4° C. After plasma separation, samples were stored at −80° C. in aliquots of 300 μL. To assay exemplary compounds in hamster plasma, a similar protocol as described for human plasma was performed diluting thawed plasma 1:2 in cFAP buffer. […] AMC release was detected measuring fluorescence at an excitation/emission wavelength of 380/460 nm using a Multifunction Microplate Reader. […]

[4] = target: T1, recombinant human FAPα (rhFAPα); assay: FAPα enzymatic endopeptidase (collagenase) activity assay, DQ collagen; assay type: biochemical; conditions: Table 2, read-out: rhFAPα (endo IC50)
[5] = system: human AML cell line MV4-11; assay: Cytotoxicity assay in human leukemia cell lines (Cell-Titer Glo); conditions: MV4-11, 48 h, read-out: MV4-11 viability IC50, μM
[6] = exopeptidase inhibition at 1 μM test compound, Table 2, read-out: rhFAPα (% exo inh @ 1 μM)
[7] = exopeptidase inhibition at 1 μM test compound, Table 3B, read-out: rhFAPα % exo inh @ 1 μM
[8] = exopeptidase, Table 2, read-out: rhFAPα (exo IC50)
[9] = exopeptidase, Table 3A, read-out: rhFAPα (exo IC50)
[10] = read-out: rhFAPα % exo inh @ 1 μM
[11] = read-out: rhFAPα (% exo inh @ 1 μM)

Sequence of circulating FAPα (Mesocricetus auratus, UniProt A0ABM2XF29) (A0ABM2XF29 24-761 limits assumed): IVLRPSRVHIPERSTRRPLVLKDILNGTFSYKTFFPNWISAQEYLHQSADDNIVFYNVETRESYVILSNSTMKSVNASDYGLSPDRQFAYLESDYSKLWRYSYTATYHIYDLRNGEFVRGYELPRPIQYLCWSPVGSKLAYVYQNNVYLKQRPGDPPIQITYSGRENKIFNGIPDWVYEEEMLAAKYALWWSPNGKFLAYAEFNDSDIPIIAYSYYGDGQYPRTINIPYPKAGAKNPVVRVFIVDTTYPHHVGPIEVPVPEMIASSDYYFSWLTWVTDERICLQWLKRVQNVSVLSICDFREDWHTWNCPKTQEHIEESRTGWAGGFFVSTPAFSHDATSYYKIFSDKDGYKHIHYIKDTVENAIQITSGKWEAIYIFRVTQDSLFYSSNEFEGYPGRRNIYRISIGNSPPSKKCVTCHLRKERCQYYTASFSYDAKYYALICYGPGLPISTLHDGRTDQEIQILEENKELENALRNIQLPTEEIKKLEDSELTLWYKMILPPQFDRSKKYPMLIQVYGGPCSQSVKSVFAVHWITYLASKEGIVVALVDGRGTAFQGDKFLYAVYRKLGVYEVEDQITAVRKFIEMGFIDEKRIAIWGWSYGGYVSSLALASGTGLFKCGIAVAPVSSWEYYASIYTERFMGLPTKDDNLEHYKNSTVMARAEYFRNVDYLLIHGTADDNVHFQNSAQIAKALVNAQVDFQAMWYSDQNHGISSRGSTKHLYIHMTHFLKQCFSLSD

SMILES	IC50 ([1]; Table 3B, read-out: rhFAP IC50)	inhibition at 1 µM [1, 6]	inhibition at 1 µM [1, 7]	IC50 [1, 8]	IC50 [1, 9]	IC50 (circulating FAPα [2])	IC50 (circulating FAPα [3])	inhibition at 1 µM [1, 10]	inhibition at 1 µM [1, 11]	IC50 [4]	IC50 [5]
N#C[C@@H]1CC(F)(F)CN1C(=O)CNC(=O)c1ccncc1NCc1ccc(F)cc1 [Compound 2, (S)—N-(2-(2-cyano-4,4-difluoropyrrolidin-1-yl)-2-oxoethyl)-3-((4-fluorobenzyl)amino)isonicotinamide]	< 1000 nM	> 50%	> 50%	< 1000 nM	< 1000 nM						
COc1ccc(C(=O)Nc2cnccc2C(=O)NCC(=O)N2CC(F)(F)C[C@H]2C#N)cc1 [Compound 3, (S)—N-(2-(2-cyano-4,4-difluoropyrrolidin-1-yl)-2-oxoethyl)-3-(4-methoxybenzamido)isonicotinamide]	< 1000 nM			< 1000 nM	< 1000 nM	< 1000 nM	< 1000 nM	> 50%	> 50%	< 1000 nM	
N#C[C@@H]1CC(F)(F)CN1C(=O)CNC(=O)c1ccncc1NC(=O)COc1ccc(Cl)c(F)c1 [Compound 5, (S)-3-(2-(4-chloro-3-fluorophenoxy)acetamido)-N-(2-(2-cyano-4,4-difluoropyrrolidin-1-yl)-2-oxoethyl)isonicotinamide]	< 1000 nM	> 50%	> 50%	< 1000 nM	< 1000 nM						
N#C[C@@H]1CC(F)(F)CN1C(=O)CNC(=O)c1ccncc1Cc1ccccc1F [Compound 7, (S)—N-(2-(2-cyano-4,4-difluoropyrrolidin-1-yl)-2-oxoethyl)-3-(2-fluorobenzyl)isonicotinamide]	< 1000 nM	> 50%	> 50%	< 1000 nM	< 1000 nM						
N#C[C@@H]1CC(F)(F)CN1C(=O)CNC(=O)c1ccncc1Cc1ccc(F)cc1 [Compound 8, (S)—N-(2-(2-cyano-4,4-difluoropyrrolidin-1-yl)-2-oxoethyl)-3-(4-fluorobenzyl)isonicotinamide]	< 1000 nM	> 50%	> 50%	< 1000 nM	< 1000 nM						
N#C[C@@H]1CC(F)(F)CN1C(=O)CNC(=O)c1ccncc1/C=C/c1ccc(Cl)cc1 [Compound 9, (S,E)-3-(4-chlorostyryl)-N-(2-(2-cyano-4,4-difluoropyrrolidin-1-yl)-2-oxoethyl)isonicotinamide]	< 1000 nM			< 1000 nM	< 1000 nM	< 1000 nM	< 1000 nM	> 50%	> 50%	< 1000 nM	> 10 µM
